Source: patent US4683291A, “Platelet binding inhibitors” (Scripps Clinic and Research Foundation, priority 1985, dated 1987)
Non-standard residues stand in square brackets, D forms with d. Residues, ends and D or L forms follow the SMILES beside them. No end group written: not given here.

Target: T1, platelet receptor, the GPIIb/IIIa complex (Homo sapiens, UniProt P05106+P08514)
T1 construct: Platelets were isolated from normal platelet-rich plasma and washed by the albumin density gradient technique; endogenous in cells; host or cells: washed platelets from normal platelet-rich plasma, thrombin-stimulated
Test: Inhibition of 125I-fibrinogen binding to thrombin-stimulated washed platelets
Settings: fibrinogen-platelet binding; read-out: IC50
Protocol: Peptides were stored in the lyophilized state and dissolved in distilled water immediately before use. One-tenth volume of 10x modified Tyrode buffer was added before mixing with the platelet suspension. Platelets were isolated from normal platelet-rich plasma and washed by the albumin density gradient technique. Fibrinogen was purified following precipitation with glycine or polyethylene glycol 1000, and radiolabeled with ^125 I using Iodogen (Pierce). […] In each experimental mixture, platelets in modified Tyrode buffer were stimulated with human alpha-thrombin at 22°-25° C. for 10 minutes (3.125×10^11 platelets/L and 0.25 NIHU/ml of thrombin). Hirudin (Sigma) was then added at a 25-fold excess (V/V) for 5 minutes before the addition of ^125 I-fibrinogen and the peptide was then tested. After these additions, the final platelet count in the mixture was 1×10^11 /L, and fibrinogen was 0.176 micromolar. Separation of bound from free ligand was achieved by centrifuging 50 microliters of the mixture through 200 microliters of 20% sucrose at 12,000 g for 4 minutes. The platelet pellet was separated from the rest of the mixture, and the platelet-bound radioactivity was then determined. Non-specific binding was measured in mixtures containing a 75-fold excess of unlabeled fibrinogen. […] Each peptide was tested at six different concentrations, and the IC50 was derived from a plot of residual fibrinogen binding versus log of peptide concentration.

Row | Compound | IC50 [µM]
1 | KRKRKRKRRGDV [Lys--Arg--Lys--Arg--Lys--Arg--Lys--Arg--Arg--Gly--Asp--Val] | 0.4

Same assay, conditions: published peptides; read-out: IC50

Row | Compound | IC50 [µM]
2 | HHLGGAKQAGDV [reference compound] | 48 to 83

Same assay, conditions: read-out: Typical IC50 (micromolar) IC50

Row | Compound | IC50 [µM]
3 | HHKRKRKQRGDS [His--His--Lys--Arg--Lys--Arg--Lys--Gln--Arg--Gly--Asp--Ser] | 6.2
4 | HHLRGKKQRGDV [His--His--Leu--Arg--Gly--Lys--Lys--Gln--Arg--Gly--Asp--Val] | 11.2
5 | HHLGGKKQRGDV [His--His--Leu--Gly--Gly--Lys--Lys--Gln--Arg--Gly--Asp--Val] | 13.2
6 | HHLRGRKQRGDV [His--His--Leu--Arg-- Gly--Arg--Lys--Gln--Arg--Gly--Asp--Val] | 6.2
7 | HHLGGAKQRGDV [His--His--Leu--Gly--Gly--Ala--Lys--Gln--Arg--Gly--Asp--Val] | 14.5
8 | KKKKKKKKRGDV [Lys--Lys--Lys--Lys--Lys--Lys--Lys--Lys--Arg--Gly--Asp--Val] | 4.1
9 | HHRRRRRRRGDV [His--His--Arg--Arg--Arg--Arg--Arg--Arg--Arg--Gly--Asp--Val] | 1.3
10 | HHKRKRKQRGDV [His--His--Lys--Arg--Lys--Arg--Lys--Gln--Arg--Gly--Asp--Val] | 3.3
11 | HHLGRRKQRGDV [His--His--Leu--Gly--Arg--Arg--Lys--Gln--Arg--Gly--Asp--Val] | 5.4
12 | RRRRRRRRRGDV [Arg--Arg--Arg--Arg--Arg--Arg--Arg--Arg--Arg--Gly--Asp--Val] | 0.2
13 | HHKRKRKRRGDS [His--His--Lys--Arg--Lys--Arg--Lys--Arg--Arg--Gly--Asp--Ser] | 3.1
14 | HHLGGRKQRGDV [His--His--Leu--Gly--Gly--Arg--Lys--Gln--Arg--Gly--Asp--Val] | 6.3
15 | HHLRKRKQRGDV [His--His--Leu--Arg--Lys--Arg--Lys--Gln--Arg--Gly--Asp--Val] | 4.4
16 | CC(C)[C@H](NC(=O)[C@H](CC(=O)O)NC(=O)CNC(=O)[C@H](CCCNC(=N)N)NC(=O)[C@H](CCC(N)=O)NC(=O)[C@H](CCCCN)NC(=O)[C@H](CCCNC(=N)N)NC(=O)CNC(=O)CNC(=O)[C@@H](C)NC(=O)[C@H](Cc1c[nH]cn1)NC(=O)[C@@H](N)Cc1c[nH]cn1)C(=O)O [His--His--D-Ala--Gly--Gly--Arg--Lys--Gln--Arg--Gly--Asp--Val] (H-HH[dA]GGRKQRGDV-OH) | 2.8
17 | CC(C)[C@H](NC(=O)[C@H](CC(=O)O)NC(=O)CNC(=O)[C@H](CCCNC(=N)N)NC(=O)[C@H](CCC(N)=O)NC(=O)[C@H](CCCCN)NC(=O)[C@H](CCCNC(=N)N)NC(=O)[C@H](CCCCN)NC(=O)[C@H](CCCNC(=N)N)NC(=O)[C@@H](C)NC(=O)[C@H](Cc1c[nH]cn1)NC(=O)[C@@H](N)Cc1c[nH]cn1)C(=O)O [His--His--D-Ala--Arg--Lys--Arg--Lys--Gln--Arg--Gly--Asp--Val] (H-HH[dA]RKRKQRGDV-OH) | 2.2
18 | HHKKKKKKRGDV [His--His--Lys--Lys--Lys--Lys--Lys--Lys--Arg--Gly--Asp--Val] | 1.6

Target: T1, platelet receptor, the GPIIb/IIIa complex
Test: not given
Settings: increasing fibrinogen concentrations; earlier findings; cited from earlier work

Row | Compound | inhibitory effect on increasing the fibrinogen concentration
19 | Gly-Pro-Arg-Pro (GPRP; printed: Gly-Pro-Arg-Pro) | increase with increasing fibrinogen concentrations
